# Source: article PMC8708455, “Trans-ε-Viniferin Encapsulation in Multi-Lamellar Liposomes: Consequences on Pharmacokinetic Parameters, Biodistribution and Glucuronide Formation in Rats” (Nutrients, 2021)
# Several values for one entry are separate records, joined by “and”; a condition that tells them apart may be missing. Identical values can stand only once. Like-named read-outs stand apart in the source and are kept apart here.
# What was measured:
# [1] = Pharmacokinetic study: plasma kinetics after oral administration of free or encapsulated εVin; assay type: in vivo, rats; conditions: for k el: read-out: Lambda z (converted); for MRT: read-out: MRT (mean residence time) (converted); for half-life: read-out: T½; for AUC0-t: 0-4 h; for occurrence of metabolites after oral administration: rats, both administration forms, data not shown
# Description: (§1) Experiments were conducted in accordance with Directive 2010/63/EU [51] and approved by the Bordeaux University Institutional Ethics Committee for Animal Research (IEC-AR CEEA 50, MESR approval A18380). Male Wistar rats (Janvier-LABS, Saint Berthevin, France) were maintained in controlled conditions: 12 h light/12 h dark cycle, humidity 50–60% and an ambient temperature of 24 ± 1 °C (animal facility agreement number: B33-063-917). Free access to food and water was allowed up to 16 h before experiments started. Rats were randomly divided into two groups. Group A (n = 5, average weight = 307.8 ± 7.7 g) received εVin dissolved in propylene glycol (5.25 mg/mL), while group B (n = 6, average weight = 308 ± 10.7 g) received the same dose of εVin but encapsulated in MLLs and suspended in ultra-pure water. Both solutions were administrated by oral gavage and precisely measured to reach a dose of 20 mg/kg bw of εVin. Blood was collected through the tail vein, making a slanting incision during the first collection. Rats were slightly anesthetized by isoflurane before every blood sample collection (600 µL) at the following time points: 20, 40, 60, 100, 140, 180 and 210 min after gavage. They were sacrificed at 240 min by a high dose of isoflurane and rapid exsanguination with saline solution injected in the right ventricular cardiac cavity with a peristaltic pump (10 mL/min). All blood samples were collected in heparinized tubes and centrifuged (10,000× g, 10 min) before sampling plasma. The liver, kidneys and four white adipose tissues (epididymal, retroperitoneal, mesenteric and subcutaneous) were removed, weighed and immediately immersed in liquid nitrogen. All blood and tissues samples were kept at −80 °C until analysis.
# (§2) Extractions were performed as previously described with some modifications to improve quantification. For plasma extraction, 360 µL of methanol (4 °C) were added to an aliquot of 120 µL of plasma. The sample was vortexed during three minutes before centrifugation (30 min, 12,000× g, 4 °C). The supernatant (380 µL) was removed and evaporated using a SpeedVac concentrator (Labconco CentriVap, Thermo Fisher Scientific, Waltham, MA, USA). Residue was kept in −80 °C before analysis. For tissues extraction, tissues (about 0.5 g) were first cut with scalpels before being mixed with 4 mL of methanol:water (80:20, v:v). Samples were homogenized with an Ultra-Turrax homogenizer (IKA, Staufen, Deutschland) before being intensely vortexed. Then, samples were centrifuged 20 min at 10,000× g and 4 °C before sampling 3 mL of supernatant. All supernatants were evaporated using a SpeedVac concentrator and kept at −80 °C. Residues were reconstituted in 60 µL and 250 µL of methanol:water (50:50, v:v) or plasma and tissue, respectively. They were vortexed intensely and centrifuged at 12,000× g during 30 min at 4 °C before being injected the supernatant in LC-HRMS.
# (§3) The quantification of εVin and the total of glucuronides (εVG) in plasma and tissues was performed as previously described with some modifications concerning the mass parameters. The U-HPLC separation was carried out with a Vanquish Flex system (Thermo Fisher Scientific, Les Ulis, France) consisting in a binary pump, an autosampler and a heated column compartment. The liquid chromatography separation was performed as previously detailed using C18 column (BEH C18 2.1 mm × 100 mm, 1.7 µm particle size, Waters, Guyancourt, France). The flow rate was set as 450 µL/min. The injection volume was 5 µL and the eluents were 0.1% formic acid in water for A and 0.1% formic acid in acetonitrile for B. The eluent B varied as follows: 0 min, 25%; 0.5 min, 25%; 3.6 min, 50%; 3.9 min, 50%; 4 min, 100%; 5.7 min, 100%; 5.8 min, 25%; 7 min, 25%. The column and sample temperature were 30 °C and 20 °C, respectively. The Exactive benchtrop Orbitrap mass spectrometer equipped with a HESI probe (both from Thermo Fisher Scientific, Bremen, Germany) was used. […]
# [2] = Quantification in plasma, liver, kidneys and white adipose tissues 4 h after oral administration; assay type: in vivo; conditions: rats, 4 h after oral 20 mg/kg bw εVin
# Description: as §1, §2, §3
# [3] = Literature pharmacokinetics of εVin after oral administration in mice (Kim et al.); assay type: in vivo; conditions: oral 40 mg/kg bw (ref 31) versus 20 mg/kg bw in this study
# [4] = parameters: method as in PMID 27902942; conditions: mice, oral 40 mg/kg bw; cited from earlier work
# [5] = parameters: method as in PMID 30400351; conditions: rats, intraperitoneal injection, cited from earlier work; for Cmax: metabolites expressed as equivalent of the native form
# [6] = parameters: method as in PMID 27175336; conditions: rats, oral 70 mg/kg bw, after hydrolysis with glucuronidase; cited from earlier work
# [7] = male, Wistar, rat, plasma, po, 20 mg/kg, rat plasma, oral 20 mg/kg bw εVin, encapsulated form (MLLs)
# [8] = male, Wistar, rat, plasma, po, 20 mg/kg, rat plasma, oral 20 mg/kg bw εVin, free form
# [9] = rat plasma, oral 20 mg/kg bw εVin, encapsulated form (MLLs)
# [10] = rat plasma, oral 20 mg/kg bw εVin, free form
# [11] = rat plasma, oral 20 mg/kg bw εVin, free form, 20 mg/kg
molecule,measurement,setting,value
"Oc1ccc(/C=C/c2cc(O)cc3c2[C@@H](c2cc(O)cc(O)c2)[C@H](c2ccc(O)cc2)O3)cc1 [εVin, Trans-ε-viniferin]",Cmax,[1]; [7],11.7 ± 7.3 nM
same,k el,[1]; [7],0.000137 s⁻¹
same,MRT,[1]; [7],3.27 h
same,Tmax,"[1]; male, Wistar, rat, plasma, po, 20 mg/kg, rat plasma, oral 20 mg/kg bw εVin, encapsulated form (MLLs), read-out: Tmax (converted)",0.333 h
same,half-life,[1]; [7],1.91 ± 1.34 h
same,Cmax,[1]; [8],15 ± 11 nM
same,k el,[1]; [8],0.000345 s⁻¹
same,MRT,[1]; [8],2.12 h
same,Tmax,"[1]; male, Wistar, rat, plasma, po, 20 mg/kg, rat plasma, oral 20 mg/kg bw εVin, free form, read-out: Tmax (converted)",1 h
same,half-life,[1]; [8],0.917 ± 0.565 h
same,AUC0–∞,[1]; [9],1660.1 ± 1313.1 pmol/mL/min
same,AUC0-t,[1]; [9],1009.8 ± 328.3 pmol/mL/min
same,AUC0–∞,[1]; [10],1919.7 ± 955.2 pmol/mL/min
same,AUC0-t,[1]; [10],1689.1 ± 682.0 pmol/mL/min
same,Cmax,[1]; [11],15.3 ± 10.5 nM
same,concentration in kidneys,[2]; free form,≤ 10 pmol/g of tissue
same,concentration in liver,[2]; free form,≤ 10 pmol/g of tissue
same,concentration in mesenteric adipose tissue,[2]; free form,92 ± 84 pmol/g of tissue
same,concentration in subcutaneous adipose tissue,[2]; free form,23 ± 12 pmol/g of tissue
same,"concentration in the three other adipose depots (epididymal, retroperitoneal, subcutaneous)",[2]; free form,around 20 pmol/g of tissue
same,AUC0-∞ of the literature study relative to the values of this study,[3],3.6 times
same,bioavailability,[4],0.77%
same,maximal concentration (Cmax),[4],42 ng/mL
same,Cmax,[5],3090 ng/mL
O=C(O)[C@H]1O[C@@H](Oc2cc(/C=C/c3ccc(O)cc3)c3c(c2)O[C@H](c2ccc(O)cc2)[C@H]3c2cc(O)cc(O)c2)[C@H](O)[C@@H](O)[C@@H]1O [V2G],occurrence of metabolites after oral administration,[1],largely in majority
Oc1ccc([C@H]2Oc3ccc(/C=C/c4cc(O)cc(O)c4)cc3[C@@H]2c2cc(O)cc(O)c2)cc1 [δ-viniferin],concentration of glucuronide metabolites relative to the native form,[6],up to 7 fold
Trans-ε-viniferin-glucuronide [εVG],increase of T1/2 by the encapsulation procedure,"[1]; rat plasma, encapsulated versus free form, p < 0.05",~3 times
same,AUC0–∞,[1]; [9],"432,315.4 ± 106,406.4 pmol/mL/min"
same,Cmax,[1]; [9],1750 ± 876 nM
same,Lambda z,[1]; [9],0.0074 ± 0.0036 * min^−1
same,Tmax,[1]; [9],1.67 h
same,AUC0-t,[1]; [9],"307,086.4 ± 316,383.9 pmol/mL/min"
same,T½,"[1]; rat plasma, oral 20 mg/kg bw εVin, encapsulated form (MLLs), 20 mg/kg",1.98 ± 1.08 h
same,AUC0–∞,[1]; [10],"264,191.0 ± 123,786.4 pmol/mL/min"
same,Cmax,[1]; [10],1670 ± 1100 nM
same,Lambda z,[1]; [10],0.0198 ± 0.0056 min⁻¹
same,MRT (mean residence time),[1]; [10],2.062 ± 0.2 h
same,Tmax,[1]; [10],1.67 h
same,AUC0-t,[1]; [10],"245,827.3 ± 114,219.8 pmol/mL/min"
same,T½,[1]; [11],0.633 ± 0.183 h and 0.637 ± 0.187 h
same,maximal plasma concentration of glucuronides relative to the aglycone (native) form,"[1]; rat plasma, oral 20 mg/kg bw εVin, free form, listed as glucuronide forms, 20 mg/kg",more than 100 times
same,maximal plasma concentration of glucuronides relative to the aglycone (native) form,"[1]; rat plasma, oral 20 mg/kg bw εVin, free form, listed as total glucuronides, 20 mg/kg",108 times
same,concentration in kidneys,[2]; encapsulated form,114 ± 12 pmol/g of tissue
same,concentration in liver,[2]; encapsulated form,1206 ± 304 pmol/g of tissue
same,concentration in mesenteric adipose tissue,[2]; encapsulated form,213 ± 81 pmol/g of tissue
same,concentration in plasma at 4 h,[2]; encapsulated form,700 ± 175 nM
same,concentration in kidneys,[2]; free form,76 ± 39 pmol/g of tissue
same,concentration in kidneys relative to the native molecule,[2]; free form,14 times
same,concentration in liver,[2]; free form,604 ± 320 pmol/g of tissue
same,concentration in liver relative to the native molecule,[2]; free form,60 times
same,concentration in mesenteric adipose tissue,[2]; free form,108 ± 75 pmol/g of tissue
same,concentration in plasma at 4 h,[2]; free form,317 ± 186 nM
same,concentration in subcutaneous adipose tissue,[2]; free form,105 ± 83 pmol/g of tissue
same,Cmax,[5],5160 ng/mL
same,Tmax,[5],1 h
O=C(O)C1OC(Oc2ccc(C=Cc3cc(O)cc4c3C(c3cc(O)cc(O)c3)C(c3ccc(O)cc3)O4)cc2)C(O)C(O)C1O (stereo not drawn) [V4G],occurrence of metabolites after oral administration,[1],traces
O=C(O)C1OC(Oc2ccc(C3Oc4cc(O)cc(C=Cc5ccc(O)cc5)c4C3c3cc(O)cc(O)c3)cc2)C(O)C(O)C1O (stereo not drawn) [V1G],occurrence of metabolites after oral administration,[1],traces
